Data from PubChem BioAssay (NCI).
Values joined by “and” are separate entries in the source; they are usually repeats but may differ in a detail not shown here. Identical values can stand only once.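 Exposure lasted 48 hours, with cells grown in 96-well plates and compounds tested at five concentrations. GI50: concentration for 50% inhibition of growth. TGI marks complete inhibition of growth.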

Assays:
Assay in all cases: NCI tumour cell line growth inhibition, 48 h
NCI-H23 lung = tested on: NCI-H23 lung
HOP-92 NSCLC = tested on: HOP-92 NSCLC
UACC-257 melanoma = tested on: UACC-257 melanoma
CAKI-1 renal = tested on: CAKI-1 renal
OVCAR-5 ovarian = tested on: OVCAR-5 ovarian
NCI-H460 lung = tested on: NCI-H460 lung
OVCAR-4 ovarian = tested on: OVCAR-4 ovarian
SF-295 CNS = tested on: SF-295 CNS
LOX IMVI melanoma = tested on: LOX IMVI melanoma
XF 498 CNS = tested on: XF 498 CNS
SK-MEL-2 melanoma = tested on: SK-MEL-2 melanoma
OVCAR-8 ovarian = tested on: OVCAR-8 ovarian
NCI-H226 lung = tested on: NCI-H226 lung
RPMI-8226 leukemia = tested on: RPMI-8226 leukemia
A498 renal = tested on: A498 renal
HCT-15 colon = tested on: HCT-15 colon
COLO 205 colon = tested on: COLO 205 colon
SN12C renal = tested on: SN12C renal
NCI-H522 lung = tested on: NCI-H522 lung
M19-MEL melanoma = tested on: M19-MEL melanoma
DMS 273 small cell lung = tested on: DMS 273 small cell lung
MALME-3M melanoma = tested on: MALME-3M melanoma
K-562 leukemia = tested on: K-562 leukemia
SK-OV-3 ovarian = tested on: SK-OV-3 ovarian
RXF 393 renal = tested on: RXF 393 renal
HCT-116 colon = tested on: HCT-116 colon
SF-539 CNS = tested on: SF-539 CNS
HT29 colon = tested on: HT29 colon
SN12K1 renal = tested on: SN12K1 renal
HOP-18 NSCLC = tested on: HOP-18 NSCLC
A549 NSCLC = tested on: A549 NSCLC
U251 CNS = tested on: U251 CNS
SW-620 colon = tested on: SW-620 colon
SK-MEL-5 melanoma = tested on: SK-MEL-5 melanoma
OVCAR-3 ovarian = tested on: OVCAR-3 ovarian
CCRF-CEM leukemia = tested on: CCRF-CEM leukemia
HOP-62 NSCLC = tested on: HOP-62 NSCLC
HCC-2998 colon = tested on: HCC-2998 colon
SNB-75 CNS = tested on: SNB-75 CNS
DMS 114 small cell lung = tested on: DMS 114 small cell lung
UO-31 renal = tested on: UO-31 renal
SF-268 CNS = tested on: SF-268 CNS
UACC-62 melanoma = tested on: UACC-62 melanoma
IGROV1 ovarian = tested on: IGROV1 ovarian
NCI/ADR-RES ovarian = tested on: NCI/ADR-RES ovarian
MOLT-4 leukemia = tested on: MOLT-4 leukemia
SNB-19 CNS = tested on: SNB-19 CNS
EKVX NSCLC = tested on: EKVX NSCLC
P388/ADR leukemia = tested on: P388/ADR leukemia
SK-MEL-28 melanoma = tested on: SK-MEL-28 melanoma
KM12 colon = tested on: KM12 colon
MCF7 breast = tested on: MCF7 breast
HL-60(TB) leukemia = tested on: HL-60(TB) leukemia
DLD-1 colon = tested on: DLD-1 colon
KM20L2 colon = tested on: KM20L2 colon

In the case of O=C1C=C[C@@H](COC2OC(CO)C(O)C(O)C2O)O1 (some centres not stated), the GI50 (NCI-H23 lung) is reported as 5.12 µM, the TGI (NCI-H23 lung) is reported as 19.2 µM and 29.7 µM and the GI50 (HOP-92 NSCLC) is reported as 14.3 µM. The TGI (HOP-92 NSCLC) was 30.3 µM and 36 µM, the GI50 (UACC-257 melanoma) was 10.2 µM and the TGI (UACC-257 melanoma) was 22.8 µM and 27.7 µM. The TGI (CAKI-1 renal) was 40 µM, the GI50 (OVCAR-5 ovarian) was 28.5 µM and the TGI (OVCAR-5 ovarian) was 50.4 µM and 36.8 µM. For the same molecule, the GI50 (NCI-H460 lung) was 3.68 µM, the TGI (NCI-H460 lung) was 14.8 µM and 32.3 µM and the GI50 (OVCAR-4 ovarian) was 13.2 µM. The TGI (OVCAR-4 ovarian) was 28.2 µM and 33.6 µM, the TGI (SF-295 CNS) was 41.8 µM and 45 µM and the TGI (LOX IMVI melanoma) was 15.8 µM and 16.4 µM. The GI50 (XF 498 CNS) was 14.3 µM, the TGI (XF 498 CNS) was 31.6 µM and 34.5 µM and the GI50 (SK-MEL-2 melanoma) was 15.3 µM. The TGI (SK-MEL-2 melanoma) was 36.3 µM and 32.8 µM, the GI50 (OVCAR-8 ovarian) was 4.61 µM and the TGI (OVCAR-8 ovarian) was > 100 µM and 66.5 µM. For the same molecule, the GI50 (NCI-H226 lung) was 17.6 µM, the TGI (NCI-H226 lung) was 48.9 µM and 96.9 µM and the GI50 (RPMI-8226 leukemia) was 2450 nM. The TGI (A498 renal) was 30.6 µM, the GI50 (HCT-15 colon) was 3.22 µM and the TGI (HCT-15 colon) was 21.5 µM and 16.4 µM. For the same molecule, the GI50 (COLO 205 colon) was 3.44 µM, the TGI (COLO 205 colon) was 14.4 µM and 19.5 µM and the GI50 (SN12C renal) was 8.38 µM. The TGI (SN12C renal) was 24.4 µM and 19 µM, the GI50 (NCI-H522 lung) was 2220 nM and the TGI (NCI-H522 lung) was 5.61 µM and 18.4 µM. For the same molecule, the GI50 (M19-MEL melanoma) was 3.8 µM, the TGI (M19-MEL melanoma) was 16.3 µM and 26.8 µM and the GI50 (DMS 273 small cell lung) was 2440 nM. For the same molecule, the TGI (DMS 273 small cell lung) was 13.9 µM and 39.6 µM, the GI50 (MALME-3M melanoma) was 12.5 µM and the TGI (MALME-3M melanoma) was 31.9 µM. For the same molecule, the TGI (K-562 leukemia) was 23.6 µM and > 100 µM, the TGI (SK-OV-3 ovarian) was greater than 100 µM and the GI50 (RXF 393 renal) was 2720 nM. For the same molecule, the TGI (RXF 393 renal) was 8.82 µM, the GI50 (HCT-116 colon) was 2630 nM and the TGI (HCT-116 colon) was 10.5 µM and > 100 µM. For the same molecule, the TGI (SF-539 CNS) was 17.6 µM and 18.4 µM, the GI50 (HT29 colon) was 1620 nM and the TGI (HT29 colon) was 5.69 µM and 19.2 µM. The TGI (SN12K1 renal) was 28.9 µM and 29.2 µM, the TGI (HOP-18 NSCLC) was greater than 100 µM and the GI50 (A549 NSCLC) was 16.7 µM. For the same molecule, the TGI (A549 NSCLC) was 76.9 µM and 62.6 µM, the TGI (U251 CNS) was 31 µM and 30.9 µM and the TGI (SW-620 colon) was 16.1 µM and 15.8 µM. The TGI (SK-MEL-5 melanoma) was 33.9 µM, the GI50 (OVCAR-3 ovarian) was 10.6 µM and the TGI (OVCAR-3 ovarian) was 22.4 µM and 31.5 µM. For the same molecule, the TGI (CCRF-CEM leukemia) was 13.9 µM and 40.8 µM, the TGI (HOP-62 NSCLC) was greater than 100 µM and the TGI (HCC-2998 colon) was greater than 100 µM. For the same molecule, the TGI (SNB-75 CNS) was 29.7 µM and 31.8 µM, the GI50 (DMS 114 small cell lung) was 3.73 µM and the TGI (DMS 114 small cell lung) was 14.2 µM and 28.5 µM. The TGI (UO-31 renal) was 85 µM, the GI50 (SF-268 CNS) was 4.59 µM and the TGI (SF-268 CNS) was 17.8 µM and 62.6 µM. The GI50 (UACC-62 melanoma) was 3.03 µM, the TGI (UACC-62 melanoma) was 12 µM and 22.6 µM and the GI50 (IGROV1 ovarian) was 14.2 µM. For the same molecule, the TGI (IGROV1 ovarian) was 34.9 µM and 83.1 µM, the TGI (NCI/ADR-RES ovarian) was 28 µM and 34.8 µM and the TGI (MOLT-4 leukemia) was 21.1 µM and 48.6 µM. For the same molecule, the GI50 (SNB-19 CNS) was 20.6 µM, the TGI (SNB-19 CNS) was 53.2 µM and the TGI (EKVX NSCLC) was 39.1 µM. For the same molecule, the TGI (P388/ADR leukemia) was 1820 nM, the GI50 (SK-MEL-28 melanoma) was 11.8 µM and the TGI (SK-MEL-28 melanoma) was 26.1 µM and > 100 µM. The GI50 (KM12 colon) was 3.16 µM, the TGI (KM12 colon) was 11.6 µM and 17.4 µM and the GI50 (MCF7 breast) was 1240 nM. The TGI (MCF7 breast) was 3.81 µM and 19.6 µM, the GI50 (HL-60(TB) leukemia) was 2750 nM and the TGI (HL-60(TB) leukemia) was 15.4 µM and 5.22 µM. The TGI (DLD-1 colon) was 17.9 µM and 19.1 µM, the GI50 (KM20L2 colon) was 14.4 µM and the TGI (KM20L2 colon) was 38 µM.
